Experimental data published in patent US20190029238A1, “[…]” (William Paterson University Of New Jersey, priority 2015, published 2019).

Experiments:
BTBR mice = assay: Behavioral effects of THC in a mouse model of depression (time and number of immobility); type: in vivo; conditions: BTBR mice (autism-like phenotype) compared to control mice; FIG. 1
Source text: FIG. 1. Behavioral effects THC in a mouse model of depression: The time and number of immobility in the test is the index measured.

CB2R = target: T1, CB2R (Mus musculus, UniProt P47936); assay: Early and pretreatment with CB2R agonist in stroke; type: in vivo
T1 construct: from tissue; host or cells: living mouse; brain (microglia and neurons) after stroke
T1 sequence (P47936 whole entry): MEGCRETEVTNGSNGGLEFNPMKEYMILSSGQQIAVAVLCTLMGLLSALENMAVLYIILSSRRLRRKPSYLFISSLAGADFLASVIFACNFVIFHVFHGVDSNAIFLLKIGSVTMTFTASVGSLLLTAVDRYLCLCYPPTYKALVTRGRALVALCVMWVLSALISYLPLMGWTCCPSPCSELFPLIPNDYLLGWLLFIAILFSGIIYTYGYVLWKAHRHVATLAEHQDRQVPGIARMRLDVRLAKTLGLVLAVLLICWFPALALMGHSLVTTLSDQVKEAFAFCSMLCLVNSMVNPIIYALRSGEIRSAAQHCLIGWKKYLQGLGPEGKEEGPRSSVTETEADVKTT
Source text: Optimal treatment time with CB2R agonist for anti-inflammation and neurodegeneration is studied after stroke. […] Using Cx3crl-Cnr2 and Nestin-Cnr2 pre-clinical mouse models of stroke timed experiments by administering the commercially available CB2R agonist […] at specific time points post infarct at selected doses provides data to evaluate compounds for this use. The CB2R molecular pathways and partners in stroke studied in microglia and neural progenitor cells (NPC) on different post stroke days are evaluated when various compounds are tested. Such microglia and neuron specific CB2Rs-KO stroke behavioral models allow precise mapping of CB2R selective agonist (e.g. JWH133) for potential protective roles in stroke.

Cnr2 gene transcripts = assay: Expression of Cnr2 gene transcripts in rodents treated with abused substances; type: in vivo; conditions: treated animals in comparison to controls
[1] = tested on: mice subjected to chronic mild stress (CMS); assay: Alcohol consumption in mice subjected to chronic mild stress (CMS); type: in vivo, mouse; conditions: for alcohol consumption: mice subjected to chronic mild stress (CMS); for CB2R agonist or antagonist effect on alcohol consumption: normal mice not subjected to CMS
Source text: The involvement of brain neuronal CB2Rs in drug abuse and depression is studied by using the conditional ko mice of the invention. Mice preferring alcohol have reduced Cnr2 gene expression in the ventral midbrain whereas the Cnr2 gene expression is unaltered in the ventral midbrain region of mice with little or no preference for alcohol. […] This CB2R agonist or antagonist effect is absent in normal mice that were not subjected to CMS.

CCCCCc1cc(O)c2c(c1)OC(C)(C)[C@@H]1CCC(C)=C[C@@H]21 [THC, tetrahydrocannabinol]
Behavioral effects of THC: time and number of immobility (BTBR mice): BTBR mice are insensitive to the effects of THC

CN1CCCCC1Cn1cc(C(=O)c2cc([N+](=O)[O-])ccc2I)c2ccccc21 (stereo not shown) [AM1241]
brain infarct volumes (CB2R): significantly reduce
neurological deficits (CB2R): significantly reduce

CC(=O)Oc1ccc2c3c1O[C@H]1[C@@H](OC(C)=O)C=C[C@H]4[C@@H](C2)N(C)CC[C@@]341 [heroin]
Cnr2 gene transcripts in the brain (Cnr2 gene transcripts): increased Cnr2 gene transcripts

COc1ccc(C(=O)c2c(C)n(CCN3CCOCC3)c3cc(I)ccc23)cc1 [AM630]
alcohol consumption [1]: reduces the stress-induced increase in alcohol consumption
CB2R agonist or antagonist effect on alcohol consumption [1]: absent

CCCn1c(C)c(C(=O)c2cccc3ccccc23)c2ccccc21 [JWH 015]
alcohol consumption [1]: enhances alcohol consumption
CB2R agonist or antagonist effect on alcohol consumption [1]: absent

CCCC(C)(C)c1ccc2c(c1)OC(C)(C)[C@@H]1CC=C(C)C[C@@H]21 [JWH133]
brain infarct volumes (CB2R): significantly reduce
neurological deficits (CB2R): significantly reduce
